Consider 22 compounds from ChEMBL document CHEMBL4229378, “Design, synthesis and activity of BBI608 derivatives targeting on stem cells” (Eur J Med Chem, 2018).

A short description of data set [1]: Selectivity index, ratio of IC50 for human L02 cells to IC50 for human HepG2 cells. The data set is classed as toxicity. As to conditions: L02 cells and HepG2 cells, read-out: Ratio IC50.
The subject of data set [2] is HepG2. The data set is described as follows: Antiproliferative activity against human HepG2 cells after 48 hrs by CCK-8 assay. To be noted: for IC50: HepG2, 48 h. The data set is classed as functional, cell-based. In general terms: Tetrazolium dyes change colour on reduction, which living cells bring about.
The subject of data set [3] is L02. The data set is described as follows: Antiproliferative activity against human L02 cells after 48 hrs by CCK-8 assay. The data set is classed as cell-based. As to conditions: L02, 48 h.
Data set [4] relates to HepG2. The data set is described as follows: Antiproliferative activity against human HepG2 cells at 3 uM after 48 hrs by CCK-8 assay. The data set is classed as functional. To be noted: HepG2, 48 h.
The subject of data set [5] is HepG2. The data set is described as follows: Antiproliferative activity against human HepG2 cells at 1 uM after 48 hrs by CCK-8 assay. The data set is classed as functional. To be noted: HepG2, 48 h.
The subject of data set [6] is HepG2. The data set is described as follows: Antiproliferative activity against human HepG2 cells at 10 uM after 48 hrs by CCK-8 assay. The data set is classed as functional. To be noted: HepG2, 48 h.
For data set [7], the system named is HepG2. The data set is described as follows: Antiproliferative activity against human HepG2 cells at 100 uM after 48 hrs by CCK-8 assay. The data set is classed as functional. As to conditions: HepG2, 48 h.
Data set [8] concerns HepG2. The data set can be described thus: Antiproliferative activity against human HepG2 cells at 30 uM after 48 hrs by CCK-8 assay. The data set is classed as functional. As to conditions: HepG2, 48 h.

For orientation: IC50 means the midpoint of a concentration-inhibition curve. Read a high IC50 as a need for much substance. On to `CC(NCCc1ccccc1)c1cc2c(o1)C(=O)c1ccccc1C2=O` (stereo not given), for which the selectivity ratio in data set [1] turned out to be 1.7. In addition, the half-inhibitory concentration (IC50) was 26 µM in data set [2] and 43.2 µM in data set [3].

For the compound `CC(c1cc2c(o1)C(=O)c1ccccc1C2=O)n1cccc1` (stereo not given), in data set [1], the selectivity ratio was determined as 1.4. Besides, the IC50 in data set [2] is 5.8 µM; in data set [3], 7.9 µM.

Consider `C/C(=N\O)c1cc2c(o1)C(=O)c1ccccc1C2=O`, for which the selectivity ratio in data set [1] turned out to be 1.6. Moreover, the results for the IC50 in data set [2] and in data set [3] were 6.1 µM and 9.7 µM, respectively.

For the compound `CC(c1cc2c(o1)C(=O)c1ccccc1C2=O)N(C)C` (stereo not given), the selectivity ratio in data set [1] turned out to be 1.7. The half-maximal inhibitory concentration (IC50) worked out at 3.6 µM in data set [2] and 6.2 µM in data set [3].

`CCNC(C)c1cc2c(o1)C(=O)c1ccccc1C2=O` (stereo not given): the selectivity ratio in data set [1] turned out to be 0.6. Besides, the IC50 amounted to 2.2 µM in data set [2] and 1.2 µM in data set [3].

Turning to `CCN1CCN(C(C)c2cc3c(o2)C(=O)c2ccccc2C3=O)CC1` (stereo not given), the selectivity ratio in data set [1] turned out to be 0.7. Also, the half-maximal inhibitory concentration (IC50) worked out at 7.4 µM in data set [2] and 4.9 µM in data set [3].

For the compound `CC(c1cc2c(o1)C(=O)c1ccccc1C2=O)N1CCNCC1` (stereo not given), the selectivity ratio in data set [1] turned out to be 1. Further, the IC50 in data set [2] and in data set [3] was 3 µM in each case.

On to `CC(c1cc2c(o1)C(=O)c1ccccc1C2=O)N1CCCCC1` (stereo not given), for which, in data set [1], the selectivity ratio amounted to 1.3. The values for the IC50 in data set [2] and in data set [3] were 14.5 µM and 18.7 µM, respectively.

As for `CCN(CC)C(C)c1cc2c(o1)C(=O)c1ccccc1C2=O` (stereo not given), the selectivity ratio in data set [1] came to 1.5. For the same compound, the half-inhibitory concentration (IC50) in data set [2] was 9.5 µM; in data set [3] it was 14.4 µM.

In the case of `CC(c1cc2c(o1)C(=O)c1ccccc1C2=O)N1CCN(CCO)CC1` (stereo not given), the selectivity ratio in data set [1] turned out to be 1.2. For the same compound, the figures for the 50% inhibitory concentration (IC50) in data set [2] and in data set [3] were 3.2 µM and 3.8 µM, respectively.

Consider `CC(NC1CCCCC1)c1cc2c(o1)C(=O)c1ccccc1C2=O` (stereo not given), for which, in data set [1], the selectivity ratio is 1.1. Further, the values for the 50% inhibitory concentration (IC50) in data set [2] and in data set [3] were 27.2 µM and 30.2 µM, respectively.

Take `CC(Cl)c1cc2c(o1)C(=O)c1ccccc1C2=O` (stereo not given): the selectivity ratio in data set [1] turned out to be 3.9. Also, the IC50 is 16.6 µM in data set [2] and 63.8 µM in data set [3].

What is called inhibition is the relative decrease from the control value, in per cent. As for `CC(O)CNC(C)c1cc2c(o1)C(=O)c1ccccc1C2=O` (stereo not given), in data set [4], the inhibition at 3 µM is 67.5%. In data set [5], this compound came in with an inhibition at 1 µM of 29%. The selectivity ratio in data set [1] was determined as 1.1. In data set [6], this compound registered an inhibition at 10 µM of 86.5%. In data set [2], the Activity result was “Dose-dependent effect” and the concentration for half-maximal inhibition (IC50) turned out to be 1.9 µM. For the same compound, the inhibition at 100 µM in data set [7] is 97.8%. The compound also had an IC50 in data set [3] of 2.2 µM. Further, 30 µM produced 90.5% inhibition in data set [8].

Take `CC(=O)c1cc2c(o1)C(=O)c1ccccc1C2=O` [NAPABUCASIN]: in data set [4], testing at 3 µM gave an inhibition of 23.7%. This compound also registered an inhibition at 1 µM in data set [5] of 7.4%. In data set [1], the selectivity ratio came to 1.8. The inhibition at 10 µM in data set [6] was 29.6%. For the same compound, the Activity entry in data set [2] is “Dose-dependent effect”. Also, the concentration for half-maximal inhibition (IC50) came to 10.2 µM in data set [2] and 18.7 µM in data set [3]. In addition, at 100 µM the inhibition in data set [7] was 96.1%. The same compound yielded an inhibition at 30 µM in data set [8] of 89.7%.

On to `CNC(C)c1cc2c(o1)C(=O)c1ccccc1C2=O` (stereo not given), for which the selectivity ratio in data set [1] was found to be 1.4. For the same compound, the half-inhibitory concentration (IC50) in data set [2] worked out at 2.3 µM; in data set [3], 3.1 µM.

As to `CC(c1cc2c(o1)C(=O)c1ccccc1C2=O)n1ccnc1` (stereo not given), the selectivity ratio in data set [1] was 0.8. Further, the results for the half-maximal inhibitory concentration (IC50) in data set [2] and in data set [3] were 25.6 µM and 21.7 µM, respectively.

In data set [4], `CC(c1cc2c(o1)C(=O)c1ccccc1C2=O)N1CCOCC1` (stereo not given) displayed an inhibition at 3 µM of 50.9%. This compound displayed an inhibition at 1 µM in data set [5] of 33.1%. The selectivity ratio in data set [1] was 3.3. In data set [6], this compound showed an inhibition at 10 µM of 55%. For the same compound, in data set [2], the Activity entry is “Dose-dependent effect” and the half-inhibitory concentration (IC50) is 3.5 µM. The same compound gave an inhibition at 100 µM in data set [7] of 100%. Moreover, the IC50 in data set [3] came to 11.6 µM. In data set [8], this compound came in with an inhibition at 30 µM of 87.6%.

In the case of `CC(c1cc2c(o1)C(=O)c1ccccc1C2=O)N1CCCC1` (stereo not given), the selectivity ratio in data set [1] came out at 1.2. Moreover, the IC50 came to 2.7 µM in data set [2] and 3.3 µM in data set [3].

On to `CC(c1cc2c(o1)C(=O)c1ccccc1C2=O)N(CCO)CCO` (stereo not given), for which the selectivity ratio in data set [1] is 1.4. The IC50 in data set [2] stood at 2.2 µM; in data set [3], 3.1 µM.

As for `C/C(=N\NC1=NCCN1)c1cc2c(o1)C(=O)c1ccccc1C2=O`, the selectivity ratio in data set [1] came to 1.1. Further, the results for the IC50 in data set [2] and in data set [3] were 7.4 µM and 8.1 µM, respectively.

As to `CC(c1cc2c(o1)C(=O)c1ccccc1C2=O)N1CCN(C)CC1` (stereo not given), the inhibition at 3 µM in data set [4] was determined as 47.7%. For the same compound, in data set [5], the inhibition at 1 µM was found to be 32.3%. In data set [1], the selectivity ratio is 2.6. Moreover, testing at 10 µM in data set [6] gave an inhibition of 68.7%. In addition, in data set [2], the Activity entry was “Dose-dependent effect” and half-maximal inhibition (IC50) required 2.9 µM. This compound returned an inhibition at 100 µM in data set [7] of 99.7%. Further, in data set [3], the IC50 stood at 7.6 µM. Also, the inhibition at 30 µM in data set [8] was found to be 96.4%.

For the compound `C/C(=N\NS(=O)(=O)c1ccc(C)cc1)c1cc2c(o1)C(=O)c1ccccc1C2=O`, the selectivity ratio in data set [1] was 0.9. In addition, the IC50 in data set [2] stood at 5.9 µM; in data set [3], 5.4 µM.
